The results in this text go back to patent US8563717B2, “Adenine derivatives” (GlaxoSmithKline LLC, priority 2008, dated 2013).

Where a name gives a salt, the structure may show the parent alone.

Format in all cases: cell-based
In assay [1] the test system is Interferon-α. As to the kind of experiment: Induction of Interferon-α using cryopreserved human PBMCs. The note with it: PBMC, 24 h incubation, normalised to 1 uM resiquimod, read-out: mean pEC50 for induction of IFN-α (converted). The method, boiled down:
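Cryopreserved healthy-donor PBMCs at 1×10^6 cells/ml in RPMI/10% FCS with 1000 units/ml IFN-gamma, exposed 24 h at 37 °C to 11-point two-fold compound dilutions. Supernatant IFN-α quantified by MSD electrochemiluminescence immunoassay; pEC50 from 4-parameter fit, normalised to 1 uM resiquimod and DMSO.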

In assay [2] the test system is Interferon-α. Nature of the assay: Induction of Interferon-α using fresh human PBMCs. The note with it: PBMC, 24 hr incubation, relative to 2 μM resiquimod control, read-out: mean pEC50 for induction of IFN-α (converted). The method, then:
(§1) Assay for the Induction of Interferon-α and TNF-α Using Fresh Human Peripheral Blood Mononuclear Cells (PBMCs)
(§2) Compounds were dissolved and serially diluted in DMSO to give 100× the required concentration range using a Biomek 2000. 1 ul of test compound was transferred into 96-well tissue culture plates using a Biomek FX. Each compound was assayed in duplicate for each donor. Each plate contained a dilution series of the TLR7/8 agonist resiquimod as standard and Column 11 contained 1 μl of 200 μM resiquimod (giving a 2 μM final concentration, used to define the approximate maximal response to resiquimod).
(§3) Blood samples from two human donors were collected into sodium heparin (10 U/ml). 25 ml volumes of whole blood were overlaid onto 15 mls Histopaque in Leucosep tubes which were centrifuged at 800 g for 20 min and the band at the plasma/histopaque interface carefully removed. The collected cells were centrifuged at 2500 rpm for 10 min. and the pellet resuspended in 10 ml of media (RPMI 1640 (Low endotoxin) supplemented with 10% v/v foetal calf serum (FCS, low endotoxin) 100 U/ml penicillin G, 100 μg/ml streptomycin, 10 mM L-glutamine and 1× non-essential amino acids). A 1:20 dilution of the cells was prepared using trypan blue & the cells counted using a haemocytometer. The PBMCs were diluted to give a final concentration of 2×10^6/ml and 100 ul of this cells suspension was added to wells containing 1 μl of diluted test compound.
(§4) The cell preparations were incubated for 24 hr. (37° C., 95% air, 5% CO2) after which a sample of the supernatant was removed using the Biomek FX and assayed for both IFN-α and TNF-α using the MSD (Mesoscale Discovery) electrochemiluminescence assay platform. The IFN-α assay was carried out similarly to that described above. The TNF-α assay was carried out as per kit instructions (Cat No K111BHB).
(§5) Cytokine released was expressed as a percentage of the 2 μM resiquimod control (column 11). This percentage was plotted against compound concentration and the pEC50 for the response determined by non-linear least squares curve fitting. For the IFN-α responses generally a 4 parameter logistic model was selected. For the TNF responses where a clear maximum response was obtained (i.e. a well defined plateau in the response was observed) then a 4 parameter model was generally used. If the upper asymptote of the curve wasn't well defined then the curve fitting was generally constrained to a maximal response of 100% (i.e., to the response to 2 μM resiquimod) or to the response of the highest concentration tested if this was greater than the resiquimod response. Some curves were bell shaped for one or both cytokines and the cytokine data on the down slope of the bell shaped response (i.e. concentrations above those giving the maximal response) were generally excluded from the fit, usually with the exception of the concentration immediately above the peak response. Curve fitting thus concentrated on the up slope of the dose response curve.

The next assay has as its system TNF-α. Nature of the assay: Induction of TNF-α using fresh human PBMCs. The note with it: PBMC, 24 hr incubation, relative to 2 μM resiquimod control, read-out: mean pEC50 for induction of TNF-α (converted). Here is the method:
as §1, §2, §3, §4, §5

`CCCCOc1nc(N)c2[nH]c(=O)n(CCCCCC3CCCN(C(C)C)C3)c2n1` (stereo not shown) [Example 69, 6-Amino-2-(butyloxy)-9-{5-[1-(1-methylethyl)-3-piperidinyl]pentyl}-7,9-dihydro-8H-purin-8-one]: the figures for the EC50 in the assay on Interferon-α [1], in the assay on Interferon-α [2] and in the assay with TNF-α were below 1.58 µM, below 0.01 µM and above 1 µM, respectively.
For `CCCCOc1nc(N)c2[nH]c(=O)n(CCC3CCN(C(C)C)CC3)c2n1` [Example 81, 6-Amino-2-(butyloxy)-9-{2-[1-(1-methylethyl)-4-piperidinyl]ethyl}-7,9-dihydro-8H-purin-8-one] the same measures were below 1.58 µM, below 0.1 µM and above 1 µM.
Taken in the same sequence, the figures for `CCCCOc1nc(N)c2[nH]c(=O)n(CC3CCCN(CCC)C3)c2n1` (stereo not shown) [Example 23, 6-Amino-2-(butyloxy)-9-[(1-propyl-3-piperidinyl)methyl]-7,9-dihydro-8H-purin-8-one] were below 1.58 µM, below 0.1 µM and above 1 µM.
For `CCC[C@H](C)Oc1nc(N)c2[nH]c(=O)n(CCCC3CCN(C(C)C)CC3)c2n1` [Example 106, 6-Amino-2-{[(1S)-1-methylbutyl]oxy}-9-{3-[1-(1-methylethyl)-4-piperidinyl]propyl}-7,9-dihydro-8H-purin-8-one] the same measures were below 1.58 µM, below 0.000316 µM and above 0.0316 µM.
In the case of `CCC[C@H](C)Oc1nc(N)c2[nH]c(=O)n(CCCCC3CCCN(CC)C3)c2n1` (stereo partly drawn) [Example 66, 6-Amino-9-[4-(1-ethyl-3-piperidinyl)butyl]-2-{[(1S)-1-methylbutyl]oxy}-7,9-dihydro-8H-purin-8-one], the EC50 in the assay with Interferon-α [1] is below 1.58 µM; in the assay with Interferon-α [2], below 0.000316 µM; in the assay on TNF-α, above 0.0316 µM.
For `CCC[C@H](C)Oc1nc(N)c2[nH]c(=O)n(CCC3CCCN(CC)C3)c2n1` (stereo partly drawn) [Example 41, 6-Amino-9-[2-(1-ethyl-3-piperidinyl)ethyl]-2-{[(1S)-1-methylbutyl]oxy}-7,9-dihydro-8H-purin-8-one], the values for the EC50 in the assay with Interferon-α [1], in the assay on Interferon-α [2] and in the assay on TNF-α were below 1.58 µM, below 0.000316 µM and above 0.0316 µM, respectively.
Taken in the same sequence, the figures for `CCCCOc1nc(N)c2[nH]c(=O)n(CCCC3CCN(C4CCCCC4)CC3)c2n1` [Example 102, 6-Amino-2-(butyloxy)-9-[3-(1-cyclohexyl-4-piperidinyl)propyl]-7,9-dihydro-8H-purin-8-one] were below 1.58 µM, below 0.01 µM and above 1 µM.
Turning to `CCCCOc1nc(N)c2[nH]c(=O)n(CCC3CCCN(C(C)C)C3)c2n1` (stereo not shown) [Example 32, 6-Amino-2-(butyloxy)-9-{2-[1-(1-methylethyl)-3-piperidinyl]ethyl}-7,9-dihydro-8H-purin-8-one], the values for the EC50 in the assay on Interferon-α [1], with Interferon-α [2] and in the assay on TNF-α were below 1.58 µM, below 0.001 µM and above 1 µM, respectively.
Taken in the same sequence, the figures for `CCC[C@H](C)Oc1nc(N)c2[nH]c(=O)n(CCC3CCN(CC)CC3)c2n1` [Example 91, 6-Amino-9-[2-(1-ethyl-4-piperidinyl)ethyl]-2-{[(1S)-1-methylbutyl]oxy}-7,9-dihydro-8H-purin-8-one] were below 1.58 µM, below 0.000316 µM and above 0.0316 µM.
For `CCCCOc1nc(N)c2[nH]c(=O)n(CCCC3CCN(CCCC)CC3)c2n1` [Example 96, 6-Amino-2-(butyloxy)-9-[3-(1-butyl-4-piperidinyl)propyl]-7,9-dihydro-8H-purin-8-one] the same measures were below 1.58 µM, below 0.001 µM and above 1 µM.
For `CCCCOc1nc(N)c2[nH]c(=O)n(CCCC3CCN(C(C)C)CC3)c2n1` [Example 95, 6-Amino-2-(butyloxy)-9-{3-[1-(1-methylethyl)-4-piperidinyl]propyl}-7,9-dihydro-8H-purin-8-one] the same measures were below 1.58 µM, below 0.01 µM and above 1 µM.
Turning to `CCC[C@H](C)Oc1nc(N)c2[nH]c(=O)n(CCCC3CCNCC3)c2n1` [Example 104, 6-Amino-2-{[(1S)-1-methylbutyl]oxy}-9-[3-(4-piperidinyl)propyl]-7,9-dihydro-8H-purin-8-one], the EC50 is below 1.58 µM with Interferon-α [1], below 0.000316 µM with Interferon-α [2] and above 0.0316 µM with TNF-α.
In the case of `CCCCOc1nc(N)c2[nH]c(=O)n(CCCC3CCCCN3CC(C)C)c2n1` (stereo not shown) [Example 18, 6-Amino-2-(butyloxy)-9-{3-[1-(2-methylpropyl)-2-piperidinyl]propyl}-7,9-dihydro-8H-purin-8-one], the EC50 in the assay on Interferon-α [1] is below 1.58 µM; with Interferon-α [2], below 0.000316 µM; with TNF-α it was above 0.0316 µM.
`CCCCOc1nc(N)c2[nH]c(=O)n(CCCCC3CCN(CCCC)CC3)c2n1` [Example 110, 6-Amino-2-(butyloxy)-9-[4-(1-butyl-4-piperidinyl)butyl]-7,9-dihydro-8H-purin-8-one]: the EC50 in the assay with Interferon-α [1] is below 1.58 µM.
On the same count and under the same terms, to `CCCCOc1nc(N)c2[nH]c(=O)n(CCCCC3CCN(C4CCCCC4)CC3)c2n1` [Example 116, 6-Amino-2-(butyloxy)-9-[4-(1-cyclohexyl-4-piperidinyl)butyl]-7,9-dihydro-8H-purin-8-one] belongs below 1.58 µM.
The same measure, in the same setting: as for `CCCCOc1nc(N)c2[nH]c(=O)n(CC3CCNCC3)c2n1` [Example 3, hydrochloride], the figure is below 1.58 µM; as for `CCCCOc1nc(N)c2[nH]c(=O)n(CCCCC3CCCN(CCC4CCCCC4)C3)c2n1` (stereo not shown) [Example 64, 6-Amino-2-(butyloxy)-9-{4-[1-(2-cyclohexylethyl)-3-piperidinyl]butyl}-7,9-dihydro-8H-burin-8-one], below 1.58 µM; as for `CCCCOc1nc(N)c2[nH]c(=O)n(CCCC3CCCN(CCC)C3)c2n1` (stereo not shown) [Example 45, 6-Amino-2-(butyloxy)-9-[3-(1-propyl-3-piperidinyl)propyl]-7,9-dihydro-8H-purin-8-one], below 1.58 µM.
Same read-out and setting: to `CCCCOc1nc(N)c2[nH]c(=O)n(CCCCCC3CCCN(CC)C3)c2n1` (stereo not shown) [Example 68, 6-Amino-2-(butyloxy)-9-[5-(1-ethyl-3-piperidinyl)pentyl]-7,9-dihydro-8H-purin-8-one] belongs below 1.58 µM; to `CCCCNc1nc(N)c2[nH]c(=O)n(CC3CCCN(CC)C3)c2n1` (stereo not shown) [Example 2, 6-Amino-2-(butylamino)-9-[(1-ethyl-3-piperidinyl)methyl]-7,9-dihydro-8H-purin-8-one], below 1.58 µM; to `CCCCOc1nc(N)c2[nH]c(=O)n(CCCCCC3CCN(CC(C)C)CC3)c2n1` [Example 127, 6-Amino-2-(butyloxy)-9-{5-[1-(2-methylpropyl)-4-piperidinyl]pentyl}-7,9-dihydro-8H-purin-8-one hydrochloride], below 1.58 µM.
In the case of `CCCCOc1nc(N)c2[nH]c(=O)n(CCCCCC3CCN(CCCC)CC3)c2n1` [Example 126, 6-Amino-2-(butyloxy)-9-[5-(1-butyl-4-piperidinyl)pentyl]-7,9-dihydro-8H-purin-8-one], the EC50 in the assay with Interferon-α [1] was below 1.58 µM.
On to `CCCCOc1nc(N)c2[nH]c(=O)n(CCC3CCCN(C4CCCC4)C3)c2n1` (stereo not shown) [Example 36, 6-Amino-2-(butyloxy)-9-[2-(1-cyclopentyl-3-piperidinyl)ethyl]-7,9-dihydro-8H-purin-8-one], for which the EC50 with Interferon-α [1] is below 1.58 µM.
Take `CCCCOc1nc(N)c2[nH]c(=O)n(CCC3CCCCN3)c2n1` (stereo not shown) [Example 11, 6-Amino-2-(butyloxy)-9-[2-(2-piperidinyl)ethyl]-7,9-dihydro-8H-burin-8-one]: in the assay on Interferon-α [1], the EC50 was below 1.58 µM.
Regarding `CCCCOc1nc(N)c2[nH]c(=O)n(CCCCCCC3CCNCC3)c2n1` [Example 132, 6-Amino-2-(butyloxy)-9-[6-(4-piperidinyl)hexyl]-7,9-dihydro-8H-purin-8-one hydrochloride], in the assay on Interferon-α [1], the EC50 is below 1.58 µM.
The same measure, in the same setting: as for `CCCCOc1nc(N)c2[nH]c(=O)n(CCCCC3CCCN(CC(C)C)C3)c2n1` (stereo not shown) [Example 60, 6-Amino-2-(butyloxy)-9-{4-[1-(2-methylpropyl)-3-piperidinyl]butyl}-7,9-dihydro-8H-purin-8-one hydrochloride], the figure is below 1.58 µM.
